The record followed here is ChEMBL document CHEMBL4699528, “Discovery and Optimization of Non-bile Acid FXR Agonists as Preclinical Candidates for the Treatment of Nonalcoholic Steatohepatitis” (J Med Chem, 2020).

Broadly, the clearance is a measure of how efficiently the substance is removed, as volume per time. A low value points to inefficient removal. As usually defined, the half-life is the time in which the quantity being followed falls by half. A low value points to fast loss. Broadly, the Cmax is the maximum level reached in the sampled fluid or tissue. A word on the Vd: it is the apparent volume that relates the amount in the body to the concentration in plasma or blood. Read a low Vd as little distribution into tissue. For orientation: AUC(0-t) means the area under the concentration-time curve up to a stated or last time point. Higher therefore signals high exposure. By bioavailability is commonly meant dose-corrected exposure relative to a reference, in per cent. A higher bioavailability goes with good availability. In general, MRT inf refers to a mean duration of stay, worked out from the concentration-time curve. Usually Tmax stands for the time from dosing to the highest level.

Data set [1] in a line: in vivo. As to conditions: Sprague-Dawley, rat, iv, 1 mg/kg.
The nature of data set [2]: in vivo. As to conditions: Sprague-Dawley, rat, po, 3 mg/kg.
The nature of data set [3]: in vivo. Particulars: Sprague-Dawley, rat, plasma, po, 3 mg/kg.
The nature of data set [4]: in vivo. As to conditions: Sprague-Dawley, rat, po, 3 mg/kg. The source holds these as a separate data set.
Data set [5] in a line: in vivo. Particulars: Sprague-Dawley, rat, 3 mg/kg.
Data set [6] can be described thus: in vivo. As to conditions: Sprague-Dawley, rat, liver, po, 3 mg/kg.
A short description of data set [7]: in vivo. Particulars: Sprague-Dawley, rat, po, 3 mg/kg. This is another data set of the same source.
Data set [8] is described as follows: in vivo. As to conditions: Sprague-Dawley, rat, iv, 1 mg/kg. This is another data set of the same source.
The nature of data set [9]: in vivo. Particulars: Sprague-Dawley, rat, po, 3 mg/kg. The source holds these as a separate data set.
Data set [10] in a line: in vivo. As to conditions: Sprague-Dawley, rat, plasma, po, 3 mg/kg. This is another data set of the same source.
A short description of data set [11]: in vivo. As to conditions: Sprague-Dawley, rat, liver, po, 3 mg/kg. This is another data set of the same source.
The nature of data set [12]: in vivo. Particulars: Sprague-Dawley, rat, iv, 1 mg/kg. This is another data set of the same source.
Data set [13] can be described thus: in vivo. Particulars: Sprague-Dawley, rat, po, 3 mg/kg. The source holds these as a separate data set.

Take `O=C(O)c1cc(F)c2nc(N3C4CCC3CC(F)(COCc3c(-c5ccccc5OC(F)(F)F)noc3C3CC3)C4)sc2c1` (configuration not stated): the clearance in “in vivo [1]” came to 8.54 mL/min/kg. In “in vivo [2]”, this compound had a half-life of 1220 min. Moreover, the concentration at 4 h stood at 165 ng/mL in “in vivo [3]” and 612 ng/mL in the data set “in vivo [6]”. The compound further showed a Cmax in “in vivo [4]” of 590 ng/mL. This compound also displayed a Vd in “in vivo [5]” of 0.84 L/kg. In addition, the exposure AUC(0-t) in the data set “in vivo [7]” amounted to 1860 ng·h/mL; in the data set “in vivo [8]” it was 1930 ng·h/mL. In “in vivo [9]”, this compound had a bioavailability of 32.2%. Further, the concentration at 1 h in the data set “in vivo [10]” was 1140 ng/mL; in the data set “in vivo [11]”, 2340 ng/mL. In “in vivo [12]”, this compound registered an MRT inf of 102 min. For the same compound, the Tmax in “in vivo [13]” stood at 22.8 min.

Compound `CCn1cc(C(=O)O)c2ccc(N3CCC(F)(COCc4c(-c5c(F)cccc5Cl)noc4C4CC4)CC3)cc21` returned a clearance in the data set “in vivo [1]” of 26.4 mL/min/kg. Further, the half-life in the data set “in vivo [2]” is 58.8 min. For the same compound, the concentration at 4 h was 49 ng/mL in “in vivo [3]” and 772 ng/mL in “in vivo [6]”. This compound also returned a Cmax in the data set “in vivo [4]” of 117 ng/mL. The compound also gave a Vd in “in vivo [5]” of 0.81 L/kg. The AUC(0-t) in “in vivo [7]” came to 103 ng·h/mL; in “in vivo [8]”, 611 ng·h/mL. For the same compound, the bioavailability in the data set “in vivo [9]” was 5.64%. In addition, the values for the concentration at 1 h in the data set “in vivo [10]” and in the data set “in vivo [11]” were 24 ng/mL and 656 ng/mL, respectively. Also, the MRT inf in the data set “in vivo [12]” turned out to be 30.6 min. Further, the Tmax in the data set “in vivo [13]” stood at 15 min.

Regarding `CCn1c(C(=O)O)cc2ccc(N3CCC(F)(COCc4c(-c5c(Cl)cccc5Cl)noc4C4CC4)CC3)cc21`, the values for the concentration at 4 h in “in vivo [3]” and in the data set “in vivo [6]” were 12.6 ng/mL and 186 ng/mL, respectively. The concentration at 1 h is 6.3 ng/mL in “in vivo [10]” and 72 ng/mL in the data set “in vivo [11]”.

On to `O=C(O)c1cc(F)c2nc(N3CCC(F)(COCc4c(-c5c(F)cccc5Cl)noc4C4CC4)CC3)sc2c1`, for which the concentration at 4 h in “in vivo [3]” was found to be 94.8 ng/mL; in “in vivo [6]” it was 929 ng/mL. The concentration at 1 h is 241 ng/mL in the data set “in vivo [10]” and 1550 ng/mL in “in vivo [11]”.

Regarding `Cn1cc(C(=O)O)c2ccc(N3CCC(OCc4c(-c5c(Cl)cccc5Cl)noc4C4CC4)CC3)cc21` [TERN-101], the clearance in the data set “in vivo [1]” was 82.6 mL/min/kg. This compound also showed a half-life in “in vivo [2]” of 133 min. Further, the concentration at 4 h in “in vivo [3]” came out at 52.1 ng/mL; in the data set “in vivo [6]” it was 153 ng/mL. In “in vivo [4]”, the concentration peaked (Cmax) at 283 ng/mL. The compound also had a Vd in “in vivo [5]” of 1.74 L/kg. Moreover, the values for the AUC(0-t) in “in vivo [7]” and in “in vivo [8]” were 195 ng·h/mL and 201 ng·h/mL, respectively. In addition, the bioavailability in the data set “in vivo [9]” turned out to be 32.4%. For the same compound, the concentration at 1 h in the data set “in vivo [10]” came out at 19.3 ng/mL; in “in vivo [11]”, 121 ng/mL. Moreover, the MRT inf in the data set “in vivo [12]” is 21 min. Further, the Tmax in “in vivo [13]” was 15 min.
